Data set [1] concerns female adult citrus red mites. Kind of data set: whole plant or invertebrate. The class given is in vivo. The following applies: Panonychus citri, in Citrus x aurantium, 48 h, read-out: mortality of the female adult citrus red mites. The procedure:
Thereafter, 10 female adult citrus red mites were released on the Citrus aurantium leaf on the cup. The next day, a miticidal formulation containing a compound of the invention (100 ppm) was prepared by adding an aqueous solution of Sorpol 355 (manufactured by Toho Kagagu Co., Ltd.) to an acetone solution containing the compound of the invention. […] The mortality of the female adult citrus red mites was determined two days after the spraying.

The test system of data set [2] is female adult Kanzawa spider mites. Nature of the data set: whole plant or invertebrate. Format: in vivo. As to conditions: Tetranychus kanzawai, in Phaseolus vulgaris, 48 h, read-out: mortality of the female adult Kanzawa spider mites. As to the method:
A kidney bean leaf (3.5 cm×4.5 cm) was placed with the rear side up on the sufficiently soaked non-woven fabric. Thereafter, 20 female adult Kanzawa spider mites were released on the kidney bean leaf on the cup. […] The mortality of the female adult Kanzawa spider mites was determined two days after the spraying.

The next data set relates to citrus rust mites. The following applies: sprayed on Citrus aurantium leaf. From the text: A plastic cup (trade name: KP-120, manufactured by Konoike Plastic Co., Ltd., Iwata) was filled with tap water, and covered with a lid having a notch cut therein. A piece (4.5×5.5 cm) of non-woven fabric having a slit of about 4 cm in length, the slit being made parallel to the longer side of the fabric at a distance of 1 cm from the edge, was placed on the lid. The 4-cm long, 1-cm wide portion of the fabric was suspended inside the plastic cup through the notch. A Citrus aurantium leaf (3 cm×3 cm) was placed with the front side up on the sufficiently soaked non-woven fabric. To prevent drying and escape of mites, the leaf was covered with a filter paper (diameter: 5 cm, No. 2, Advantec Toyo Kaisha, Ltd.) having two holes of 10 mm in diameter. A leaf on which the citrus rust mites were bred was cut out into pieces with a cork borer (diameter: 2 mm), and the leaf pieces were placed with the front side up on the Citrus aurantium leaf on the non-woven fabric. The next day, the dry leaf pieces were removed. […] Subsequently, 4 ml of a miticidal formulation containing a test compound (100 ppm or 200 ppm), which was prepared according to Test Example 1, was sprayed over the leaf with a spray gun (PB-308 Piece Bon, Olympos, Osaka; 1 kgf/cm^2). […] The mortality of the citrus rust mites was determined two days after the spraying. […]

Data set [3] relates to Two-spotted spider mites (eggs). Kind of data set: Ovicidal test on two-spotted spider mites (Test Example 2). The class given is in vivo, Tetranychus urticae. The following applies: 500 ppm sprayed on kidney bean leaf; six days after the spraying. As to the method:
A kidney bean leaf (about 3.5×4.5 cm) was placed on the sufficiently soaked non-woven fabric. Female adult two-spotted spider mites (about 5 mites) were released on the leaf, and the leaf was placed in a thermostatic chamber (25±2° C., 16L8D). […] The ovicidal rate of the two-spotted spider mites was determined six days after the spraying.

The subject of the next data set is Two-spotted spider mites. Nature of the data set: whole plant or invertebrate. As to conditions: Tetranychus urticae, in Phaseolus vulgaris, 48 h, read-out: mortality of the two-spotted spider mites, 500 ppm sprayed on kidney bean leaf; two days after the spraying. The class given is in vivo. The procedure:
A kidney bean leaf (about 3.5×4.5 cm) was placed on the sufficiently soaked non-woven fabric. Two-spotted spider mites (about twenty mites) were released on the leaf, and the leaf was placed in a thermostatic chamber (25±2° C., 16L8D). The next day, a miticidal formulation containing a compound of the invention (500 ppm) was prepared by adding an aqueous solution of Sorpol 355 (manufactured by Toho Kagagu Co., Ltd.) (100 ppm) to an acetone solution containing the compound of the invention. […] The mortality of the two-spotted spider mites was determined two days after the spraying.

Where two headings read alike, the source gives them in different places.

As to `C[C@@H]1CN(c2ccc(C(F)(F)F)cn2)CC[C@H]1Oc1cc(-c2cc(F)cc(F)c2)n[nH]1` (relative stereo) [1a-296, trans-4-[3-(3,5-difluorophenyl)pyrazol-5-yloxy]-3-methyl-1-[5-(trifluoromethyl)-2-pyridyl]-piperidine], the melting point fell in the range of 136.9 to 137.6 °C.

Regarding `C[C@@H]1CN(c2ccc(C(F)(F)F)cn2)CC[C@H]1Oc1cc(-c2cc(F)cc(F)c2)nn1CC1OCCO1` (relative stereo) [1a-301, trans-4-[1-(1,3-dioxolan-2-yl)methyl-3-(3,5-difluorophenyl)pyrazol-5-yloxy]-3-methyl-1-[5-(trifluoromethyl)-2-pyridyl]-piperidine], the mortality at 100 ppm in data set [1] and in data set [2] was 100% each time.

In the case of `CCCCn1nc(C(F)(F)F)cc1OC1CCN(c2ccc(C(F)(F)F)cn2)CC1` [1a-17, 4-[1-butyl-3-(trifluoromethyl)pyrazol-5-yloxy]-1-[5-(trifluoromethyl)-2-pyridyl]-piperidine], in data set [2], the mortality at 100 ppm is 100%.

For the molecule `CC(C)(C)n1nc(C(F)(F)F)cc1OC1CCN(c2ccc(C(F)(F)F)cn2)CC1` [1a-26], the “Insect mortality (%)” value is given as 100% with citrus rust mites (100 ppm test compound) and 67% in the data set on citrus rust mites (200 ppm test compound).

`FC(F)(F)c1ccc(N2CCC(Oc3cc(C(F)(F)F)nn3-c3cccc(Cl)c3)CC2)nc1` [1a-62, 4-[1-(3-chlorophenyl)-3-(trifluoromethyl)pyrazol-5-yloxy]-1-[5-(trifluoromethyl)-2-pyridyl]-piperidine]: in data set [1], the mortality at 100 ppm stood at 100%.

For the molecule `Cn1nc(-c2cc(Cl)cc(Cl)c2)cc1OC1CCN(c2ccc(C(F)(F)F)cn2)CC1` [1a-107, 4-[3-(3,5-dichlorophenyl)-1-methylpyrazol-5-yloxy]-1-[5-(trifluoromethyl)-2-pyridyl]-piperidine], the melting point fell in the range of 161.8 to 162.4 °C.

Molecule `Cn1nc(C(F)(F)F)cc1OC1CCN(c2ccc(C(F)(F)F)cn2)CC1(C)C` (centres unmarked) [1a-215, 3,3-dimethyl-4-[1-methyl-3-(trifluoromethyl)pyrazol-5-yloxy]-1-[5-(trifluoromethyl)-2-pyridyl]-piperidine] showed a melting point of 102.5 to 103 °C.

`CCCCn1nc(C(F)(F)F)cc1S(=O)(=O)C1CCN(c2ccc(C(F)(F)F)cn2)CC1` [1a-218, 4-[1-butyl-3-(trifluoromethyl)pyrazol-5-ylsulfonyl]-1-[5-(trifluoromethyl)-2-pyridyl]-piperidine] came in with a melting point of 105.3 to 105.6 °C.

Take `CCCCn1nc(-c2ccc(F)cc2)cc1OC1CCN(c2ccc(C(F)(F)F)cn2)CC1` [1a-236]: the “ovicidal rate of the two-spotted spider mites” value (shortened to “ovicidal rate”) in data set [3] is 100%.

With `FC(F)(F)c1ccc(N2CCC(Oc3cc(C(F)(F)F)n[nH]3)CC2)nc1` [1a-245, 4-[3-(trifluoromethyl)pyrazol-5-yloxy]-1-[5-(trifluoromethyl)-2-pyridyl]-piperidine], the melting point fell in the range of 133.8 to 134.5 °C.

`Cc1ccc(-n2nc(C(F)(F)F)cc2OC2CCN(c3ccc(C(F)(F)F)cn3)CC2)nc1` [1a-247]: the “ovicidal rate” value in data set [3] is 100%.

For `CCCCn1nc(-c2cc(Cl)ncc2Cl)cc1OC1CCN(c2ccc(C(F)(F)F)cn2)CC1` [1a-249], the “ovicidal rate” value in data set [3] worked out at 100%.

As for `CCOC(=O)n1nc(C(F)(F)F)cc1OC1CCN(c2ccc(C(F)(F)F)cn2)CC1` [1a-288, 4-[1-ethoxycarbonyl-3-(trifluoromethyl)pyrazol-5-yloxy]-1-[5-(trifluoromethyl)-2-pyridyl]-piperidine], the mortality at 500 ppm in the data set with Two-spotted spider mites was at least 50%.

`FC(F)(F)CCCn1nc(OC2CCN(c3ccc(C(F)(F)F)cn3)CC2)cc1C(F)(F)F` [1b-49]: the “ovicidal rate” value in data set [3] turned out to be 100%.

On to `COC(Cn1nc(O[C@@H]2[C@@H]3CC[C@H]2CN(c2ccc(C(F)(F)F)cn2)C3)cc1C(F)(F)F)OC` [1b-52, 8β-[1-(2,2-dimethoxy)ethyl-5-(trifluoromethyl)pyrazol-3-yloxy]-1-[5-(trifluoromethyl)-2-pyridyl]-3-azabicyclo[3.2.1]octane], for which the mortality at 500 ppm in the data set with Two-spotted spider mites was at least 50%.

By melting point is commonly meant the temperature, or range, at which the solid turns liquid. The mortality is the share of the test organisms that died.

For the origin of these results see patent publication US7994094B2, “N-pyridylpiperidine compound, method for producing the same, and pest control agent” (Otsuka Agritechno Co., Ltd., priority 2006, dated 2011).
